Patent US8722626B2, “Method for controlling fibrosis and other pathological deposits in tissues comprising administering a GHRP-6 composition” (Centro de Ingenieria Genetica y Biotecnologia, priority 2006, dated 2014)
Square brackets hold non-standard residues; d marks the D form. Ends that are not written are not given here. Peptide text beside a SMILES is read from it. * marks the point of attachment. dTrp(2-Me) = Cc1[nH]c2ccccc2c1C[C@@H](N)C(=O)O; Octanoyl = CCCCCCCC(=O)*

How the values were obtained:
[1] = tested on: transgenic mice over-expressing one mutated form of the NOTCH 3 gene; experiment: Dementia of vascular origin: transgenic mice over-expressing mutated NOTCH 3 gene (CADASIL model, Example 6); assay type: in vivo, mouse; parameters: SODt (oxidative stress marker) / Cabalase (oxidative stress marker) / HPT (oxidative stress marker) / MDA (oxidative stress marker): unit not given here; conditions: 100 μg/kg i.p. twice a week, 16 weeks; for Cabalase (oxidative stress marker) / Cerebral Myo-inositol / HPT (oxidative stress marker) / MDA (oxidative stress marker) / SODt (oxidative stress marker): brain; for No. of blood vessels positive to Congo Red / No. of blood vessels positive to Nissl / No. of hemorrhagic foci. / No. of subcortical infarctions.: cerebral tissues
Experimental: This experiment was conducted to evaluate the efficacy of pharmaceutical compositions indistinctly containing one of the peptides GHRP-6, GHRP-2, hexarelin or ghrelin on the central neurofunctional involution process in transgenic mice over-expressing one mutated form of the NOTCH 3 gene in blood vessel smooth muscle cells. These animals develop in terms of months an arteriopathy similar to that of the CASADIL disease, referred to the descriptive memory, and is occurring as one of the main causes of vascular dementia. In these animals, vascular lesions also include retinal-cerebral, cerebral and cochlear vasculopathies. The beta-amiloid material present in the brain and blood vessels, the deposit of osmophilic granular material in brain and meningeal artery walls and their reduced lumen are histopathologically relevant. White-pale zones, microinfarction and hemorrhagic foci zones appear in the brain and its main nervous trunks.
Eighteen- to twenty-months-old male mice were employed when evidenced the symptoms of the disease. The animals were randomly assigned to the following experimental treatment groups: • A—Placebo group receiving the physiological saline solution. • B—Group receiving GHRP-6 at a 100 μg/kg dosage. • C—Group receiving GHRP-2 at a 100 μg/kg dosage. • D—Group receiving Ghrelin at a 100 μg/kg dosage. • E—Group receiving Hexarelin at a 100 μg/kg dosage.
Treatments were applied twice a week during 16 weeks by intraperitoneal route. When treatments concluded, autopsy studies were conducted irrespective of the clinical improvement evidenced in a great number of animals treated. Brain tissue samples including meningeal tissues were collected for biochemical and histopathological determinations. The animals received anesthesia overdosed and subjected to intra-cardiac perfusion with cold physiological saline solution to wash off the blood present in the encephala. The encephala were extracted and one encephalon was frozen in dry-ice and the other was fixed in 4% para-formaldehyde neutral. Samples were cryo-sliced at 10 μm and slices were stained with hematoxylin/eosin, Congo Red, or incubated with an antibody specific for the beta-amiloid protein. Morphometric procedures were carried out by microscopic imaging capture by a camera connected to the microscope, and the images were analyzed with the DIGIPAT software.
Number of fibrillar deposits of beta-amiloid in blood vessels.
Number of sub-cortical infarctions.
Number of sub-cortical hemorrhages.
Brain concentration of myo-inositol as indicator of aging and brain metabolism deterioration (μmol/g of tissue).
Brain oxidative stress markers.

[2] = tested on: human keloid fragments xeno-transplanted in athymic mice; experiment: Human keloid fragments xeno-transplanted into athymic mice (Example 7); assay type: in vivo, mouse; conditions: for No. of fields positive to collagen-specific staining: Picrosirius red and trichromic Masson's staining, 4× and 10× averaged; for No. of fields positive to collagen-specific staining / No. of microscopic fields with mast cells (20X magnif.): infiltrated once every 24 hrs during 7 days; for No. of microscopic fields with mast cells (20X magnif.): aniline blue staining; for Hydroxiproline content in the tissue / Wet weight of the graft collected: infiltrated at the edges in the implants once every 24 hrs during 7 days, 5 micrograms to 1 milligram
Description: To study the effect of peptides GHRP-6, GHRP-2, Hexarelin and/or Ghrelin in eradicating the pathological deposits of physiological material in the skin, human keloid fragments were xeno-transplanted into the dorsal region in athymic mice. After 72 hrs of evolution, to corroborate grafting and viability of xeno-transplants, the animals (N=6) were randomly distributed into the following experimental groups: • A—Saline control group (vehicle of the active principles). • B—Group receiving GHRP-6. • C—Group receiving GHRP-2. • D—Group receiving Ghrelin. • E—Group receiving Hexarelin. • Treatments were applied once every 24 hrs during 7 days. The substances were infiltrated at the edges in the implants, for local bioavailability of the active principles, at dosages from 5 micrograms to 1 milligram. After the treatment period, the animals were sacrificed and the implants extracted to evaluate the pharmacological response to every substance. Samples were weighed and fragmented for histological studies and biochemical determinations of collagen. The fragments for histological studies were fixed in 10% formalin neutral, and those fragments for biochemical analyses were stored at −70° C. • The parameters studied were: • a—Wet weight of the graft collected. • b—Hydroxiproline content in the tissue. • c—Number of microscopic fields with tissue positive to Picrosirius red staining and trichromic Masson's staining.

Row | Compound | Cabalase (oxidative stress marker) [1] | Cerebral Myo-inositol [1] | HPT (oxidative stress marker) [1] | MDA (oxidative stress marker) [1] | SODt (oxidative stress marker) [1] | No. of blood vessels positive to Congo Red [1] | No. of blood vessels positive to Nissl [1] | No. of hemorrhagic foci. [1] | No. of subcortical infarctions. [1] | No. of fields positive to collagen-specific staining [2] | No. of microscopic fields with mast cells (20X magnif.) [2] | Hydroxiproline content in the tissue [2] [µg/g] | Wet weight of the graft collected [2] [a grams]
1 | GHRP-2 | 48.23 ± 14.25 | 14.65 ± 4.38 μmol/g of tissue | 117 ± 13.55 | 0.302 ± 0.01 | 11065.49 ± 46.29 | 18.26 ± 4.57 | 13.8 ± 6.76 | 11.79 ± 4.25 | 30.13 ± 5.72 | 18.12 | 11.17 ± 3.33 | 84.17 ± 7.75 | 7.14 ± 1.02
2 | Cc1[nH]c2ccccc2c1C[C@@H](NC(=O)[C@@H](N)Cc1cnc[nH]1)C(=O)N[C@@H](C)C(=O)N[C@@H](Cc1c[nH]c2ccccc12)C(=O)N[C@H](Cc1ccccc1)C(=O)N[C@@H](CCCCN)C(N)=O [Hexarelin] (H-H[dTrp(2-Me)]AW[dF]K-NH2) | 51.19 ± 7.84 | 11.88 ± 2.71 μmol/g of tissue | 54.3 ± 11.87 | 0.284 ± 0.01 | 10814.68 ± 33.08 | 15.24 ± 1.24 | 11.36 ± 6.4 | 14.61 ± 3.31 | 27.11 ± 3.55 | 12.35 | 10.18 ± 2.98 | 88.59 ± 6.58 | 6.25 ± 1.73
3 | Ghrelin: secretagogue peptide; active principle of the pharmaceutical composition (GSS(Octanoyl)FLSPEHQRVQQRKESKKPPAKLQPR; ends and bridges not checked; UniProt Q9UBU3 24-51, looked up) | 44.67 ± 11.58 | 14.04 ± 3.85 μmol/g of tissue | 142.16 ± 10.01 | 0.261 ± 0.03 | 12290.9 ± 60.32 | 17.67 ± 2.26 | 11.27 ± 4.61 | 13.06 ± 2.77 | 26.9 ± 4.27 | 11.27 | 10.71 ± 4.57 | 85.23 ± 4.11 | 6.67 ± 1.53
